Assay results from EP1267623B1, “ACYCLIC MONOTERPENES AS ANTI-SPROUTING AGENTS FOR POTATO TUBERS” (COUNCIL OF SCIENTIFIC & INDUSTRIAL RESEARCH; An Indian …, priority 2000, dated 2001).

Key:
Format in all cases: in vivo
potato tubers [1] = assay: Sprout inhibition by exposure to vapours of volatilized compounds for seven days (Example 6); conditions: for % eyes sprouted: exposed to vapours (1 ml on filter paper, saturated atmosphere) for seven days, 14 days after removal; for sprouting 18 days after removal from treatment flask: exposed to vapours for seven days
From the text: Tubers treated with emulsions of different aromatic compounds remained dormant. Therefore, it was tried to find out the response when tubers were exposed to vapours of volatilized compounds for sprout inhibition. Substantially pure compounds were used as in other examples. Six potatoes were placed in air tight jars containing 9 cm piece of filter paper saturated with one ml of the liquid compound. These amounts were sufficient to produce a saturated atmosphere in the flask. The filter paper was placed in the cap of the flask so that no direct physical contact with the tuber occurred. The tubers were removed after seven days and placed in flasks containing fresh air at ambient temperature. Control tubers were placed in sealed flask lacking any added compound. […] Such short term treatment would greatly lessen costs to the potato industry.

potato tubers [2] = assay: Sprout inhibition by dipping in combinations of monoterpenes and other compounds (Example 5); conditions: dipping five hours in aqueous solution with Tween 20, 4-8 mM
Method: Combination of 4-8 mM of each geraniol, citral , citronella and citronellal were tried to determine the best combination. Along with this some other compounds were also tried. The terpenes were applied by dipping the tubers for five hours in aqueous solution of the monoterpenes containing Tween 20 as emulsifying agent. […] Other chemicals were not very effective. Results are given in table 5.Menthol, anisaldehyde, thymol, cinnamom bark oil and thymol has been used earlier (U.S. Patent No. 5,129,951 ) and were effective.

potato tubers [3] = assay: Sprout inhibition by dipping in geraniol and citral at different concentrations (Example 4); conditions: for % eyes sprouted: dipping 5 hours, then 12 days in jars; for sprouting till 20 days after treatment: experiment continued till 20 days after treatment (6 and 8 mM)
Method: Tubers were treated with geraniol and citral the two promising chemicals at different concentrations. The terpenes were applied at 4mM, 6mM and 8m M for 5 hours by dipping the tubers and then the tubers were kept in jars for 12 days.

potato tubers [4] = assay: Sprout inhibition by exposure to fumes of citral from a vaporizer for 1, 2 or 4 days (Example 7); conditions: 14 days after treatment
Method: The tubers were exposed to fumes of citral with the help of a vaporizer at ambient temperature in a close atmosphere for 24 hour, 48 hour and 96 hours. The tubers were then placed in flask containing fresh air and free of any additional volatilized compound. Control tubers were placed in sealed flasks lacking any added compounds. Fourteen days after treatment all tubers examined for percentage of eyes sprouted, tuber texture and fungal growth. 7

potato tubers [5] = assay: Sprout inhibition after dipping tubers in 8 mM emulsions of purified compounds (Example 3); conditions: for % eyes sprouted: 8 mM emulsion with Tween 20, dipping 5 hours, then 10 days in jars at ambient temperature; for dormancy of tubers under repeated treatment: emulsion, dipped 5 hours, kept 10 days, then dipped again, after two months
Method: Therefore essential oils were purified by column chromatography and substantially pure compounds were used.
Emulsion of the compounds were prepared of 8 mM concentration of each compound in distilled water containing 2x10-6 % Tween 20 as emulsifier ( control tubers were treated with Tween 20 only). Tubers were treated by dipping each tuber in emulsion for 5 hours, where upon excess liquid was allowed to drain off. Six tubers per treatment were used, with two replicates, and all experiments were repeated once. Tubers were then kept in jars for 10 days at ambient temperature. Tubers were then evaluated as in example 1 & 2 for percentage of sprouted eyes, tuber texture and fungal growth.
Geranyl acetate inhibited sprouting by 42%. […] A&M plants 3 (3) no. 1452 pp 183].
Geraniol, citral, citranellol, citranellal and menthyl acetate were as effective as reported monoterpenes such as benzaldehyde, cinnamaldehyde, eugenol and thymol (U.S.patent no. 5,129,951).

[6] = 8 mM emulsion, dipping 5 hours, 10 days

SMILES	% eyes sprouted (potato tubers [1])	sprouting 18 days after removal from treatment flask (potato tubers [1])	% eyes sprouted After 3 days (potato tubers [2])	% eyes sprouted after 7 days (potato tubers [2])	% eyes sprouted after 14 days (potato tubers [2])	% eyes sprouted (potato tubers [5])	effect on tuber sprouting (in words) (potato tubers [5]; [6])	further results
CC(C)=CCCC(C)CC=O (stereo not drawn) [citronellal]	0.0%	remained unsprouted	–	–	–	–	–	–
CC=Cc1ccc(OC)cc1 [Anethol]	–	–	0.0%	0.0%	51%	–	–	–
CC(C)=CCCC(C)=CC=O [Citral]	0.0%	remained unsprouted	–	–	–	19%	completely inhibited sprouting	% eyes sprouted (potato tubers [3]; 4mM): 4.1%; % eyes sprouted (potato tubers [3]; 6mM): 0.0%; % eyes sprouted (potato tubers [3]; 8 mM): 0.0%; sprouting till 20 days after treatment (potato tubers [3]): sprouting was not observed; % eyes sprouted (potato tubers [4]; exposure to fumes for 1 Day (24 hour)): 18.5%; % eyes sprouted (potato tubers [4]; exposure to fumes for 2 Days (48 hour)): 8.3%; % eyes sprouted (potato tubers [4]; exposure to fumes for 4 Days (96 hours)): 0.0%; dormancy of tubers under repeated treatment (potato tubers [5]): completely dormant
C=CC(C)(O)CCC=C(C)C (stereo not drawn) [Linalool]	–	–	–	–	–	100%	no significant effect	–
C=C(C)[C@H]1CC=C(C)C(=O)C1 [d-carvone]	–	–	–	–	–	93%	no significant effect	–
CC(C)=CCC[C@H](C)CCO [l-citronellol]	–	–	–	–	–	0.0%	–	–
CC1CCC(C(C)C)C(O)C1 (stereo not drawn) [Menthol]	–	–	29%	29%	29%	–	–	–
CC(=O)OC1CC(C)CCC1C(C)C (stereo not drawn) [Menthyl acetate]	0.0%	remained unsprouted	0.0%	0.0%	0.0%	–	–	–
CC(C)=CCC/C(C)=C/CO [Geraniol]	0.0%	remained unsprouted	–	–	–	16%	completely inhibited sprouting	% eyes sprouted (potato tubers [3]; 4mM): 7.5%; % eyes sprouted (potato tubers [3]; 6mM): 0.0%; % eyes sprouted (potato tubers [3]; 8 mM): 0.0%; sprouting till 20 days after treatment (potato tubers [3]): sprouting was not observed; dormancy of tubers under repeated treatment (potato tubers [5]): completely dormant
COc1ccc(C=O)cc1 [Anisaldehyde]	–	–	78%	96%	96%	–	–	–
CC(=O)OC/C=C(\C)CCC=C(C)C [Geranyl acetate]	–	–	–	–	–	58%	–	inhibited sprouting by (potato tubers [5]; [6]): 42%
Cc1ccc(C(C)C)c(O)c1 [Thymol]	–	–	79%	98%	98%	–	–	–
C=C(C)[C@@H]1CC=C(C)C(=O)C1 [I-carvone]	–	–	–	–	–	100%	no significant effect	–
CC12CCC(CC1=O)C2(C)C (stereo not drawn) [Camphor]	–	–	–	–	–	89%	no significant effect	–
CC(C)=CCC[C@@H](C)CCO [d-citronellol]	0.0%	remained unsprouted	–	–	–	17%	–	–
